The record followed here is article PMC5896570 (SLAS discovery : advancing life sciences R & D, 2016).

Experiment [1] concerns the target T1, full-length human A2AR (Homo sapiens, UniProt P29274). The format is binding. Particulars: for receptor-ligand complexes formed at equilibrium: saturation.
Experiment [2] deals with T1, full-length human A2AR. The format is binding. The settings on record: mean ± SEM, n=16; for Kd: read-out: Kinetic KD.
The mark [3] stands for this setting: analytical solution, fixed α 5.6%.
Setting [4] is: numerical solution, fixed KD 22 nM.

Where “and” joins values, the source holds several entries; their conditions need not be identical. Equal entries are not always repeated. Where two headings read alike, the source gives them in different places.

T1 sequence (P29274 whole entry): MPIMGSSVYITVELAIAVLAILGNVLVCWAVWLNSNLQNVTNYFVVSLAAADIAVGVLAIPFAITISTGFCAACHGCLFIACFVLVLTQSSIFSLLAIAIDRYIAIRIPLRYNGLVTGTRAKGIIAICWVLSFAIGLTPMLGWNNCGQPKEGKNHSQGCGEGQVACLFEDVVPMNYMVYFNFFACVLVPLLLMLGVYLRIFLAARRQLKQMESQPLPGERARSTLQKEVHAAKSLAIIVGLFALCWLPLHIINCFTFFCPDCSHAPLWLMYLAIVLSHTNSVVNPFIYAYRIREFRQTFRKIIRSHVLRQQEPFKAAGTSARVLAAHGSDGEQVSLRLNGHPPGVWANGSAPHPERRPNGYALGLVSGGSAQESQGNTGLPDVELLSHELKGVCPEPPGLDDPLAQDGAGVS

By Kd is commonly meant a measure of binding affinity in units of concentration. Turning to `CCNC(=O)[C@H]1O[C@@H](n2cnc3c(N)nc(NCCc4ccc(CCC(=O)NCCNC(=S)Nc5ccc6c(c5)C(=O)OC6(c5ccc(O)cc5)c5ccc(O)cc5)cc4)nc32)[C@H](O)[C@@H]1O` [FITC-APEC, 2-[2-[4-[2-[2-[1,3-Dihydro-1,1-bis (4-hydroxyphenyl)-3-oxo-5-isobenzofuranthioureidyl]ethylaminocarbonyl]ethyl]phenyl]ethylamino]-5′--ethylcarboxamidoadenosine], the Bmax in experiment [1] (equilibrium, Scatchard analysis, ± SEM, n=5) was ~ 5.6 % of RT and 5.6 ± 0.4 % of RT. Moreover, the “receptor-ligand complexes formed at equilibrium” value in experiment [1] (receptor concentration 160 nM) worked out at 9 nM. Further, in experiment [1] (receptor concentration 480 nM), the “receptor-ligand complexes formed at equilibrium” value was 25 nM. For the same compound, in experiment [2] (setting [3]), the Residence time came out at 22 ± 1.5 min, the koff is reported as 7.7 ± 0.5 x10^−4 s^−1, the kon is listed as 1.5 ± 0.2 x10^4 (M s)^−1 and the Kd was 73 ± 15 nM. For the same compound, in experiment [2] (setting [4]), the Residence time is on record as 47 ± 3.8 min, the koff is 3.6 ± 0.3 x10^−4 s^−1, the “α (Bmax/RT)” value turned out to be 6.8 ± 1.1% and the Kd was 22 ± 2.3 nM.
